# In patent publication US9284319B2, “Heterocyclyl aminoimidazopyridazines” (BAYER INTELLECTUAL PROPERTY GMBH, priority 2011, dated 2016):
# What was measured:
# [1] = target: T1, human full-length MKNK1 (Homo sapiens (Human), UniProt Q9BUB5, T344D); assay: MKNK1 kinase assay (TR-FRET); type: biochemical; conditions: ATP 10 μM final; 15 min preincubation with enzyme
# Procedure: MKNK1-inhibitory activity of compounds of the present invention was quantified employing the MKNK1 TR-FRET assay as described in the following paragraphs.
# As substrate for the kinase reaction the biotinylated peptide biotin-Ahx-[…] (C-terminus in amide form) was used which can be purchased e.g. form the company Biosyntan (Berlin-Buch, Germany).
# (§1) For the assay 50 nL of a 100 fold concentrated solution of the test compound in DMSO was pipetted into a black low volume 384 well microtiter plate (Greiner Bio-One, Frickenhausen, Germany), 2 μL of a solution of MKNK1 in aqueous assay buffer [50 mM HEPES pH 7.5, 5 mM magnesium chloride, 1.0 mM dithiothreitol, 0.005% (v/v) Nonidet-P40 (Sigma)] was added and the mixture was incubated for 15 min at 22° C. to allow pre-binding of the test compounds to the enzyme before the start of the kinase reaction. Then the kinase reaction was started by the addition of 3 μL of a solution of adenosine-tri-phosphate (ATP, 16.7 μM=>final conc. in the 5 μL assay volume is 10 μM) and substrate (0.1 μM=>final conc. in the 5 μL assay volume is 0.06 μM) in assay buffer and the resulting mixture was incubated for a reaction time of 45 min at 22° C. The concentration of MKNK1 was adjusted depending of the activity of the enzyme lot and was chosen appropriate to have the assay in the linear range, typical concentrations were in the range of 0.05 μg/mL. The reaction was stopped by the addition of 5 μL of a solution of TR-FRET detection reagents (5 nM streptavidine-XL665 [Cisbio Bioassays, Codolet, France] and 1 nM anti-ribosomal protein S6 (pSer236)-antibody from Invitrogen [#44921G] and 1 nM LANCE EU-W1024 labeled ProteinG [Perkin-Elmer, product no. AD0071]) in an aqueous EDTA-solution (100 mM EDTA, 0.1% (w/v) bovine serum albumin in 50 mM HEPES pH 7.5).
# (§2) The resulting mixture was incubated for 1 h at 22° C. to allow the formation of complex between the phosphorylated biotinylated peptide and the detection reagents. Subsequently the amount of phosphorylated substrate was evaluated by measurement of the resonance energy transfer from the Eu-chelate to the streptavidine-XL. Therefore, the fluorescence emissions at 620 nm and 665 nm after excitation at 350 nm were measured in a TR-FRET reader, e.g. a Rubystar (BMG Labtechnologies, Offenburg, Germany) or a Viewlux (Perkin-Elmer). The ratio of the emissions at 665 nm and at 622 nm was taken as the measure for the amount of phosphorylated substrate.
# [2] = target: T1, human full-length MKNK1; assay: MKNK1 kinase high ATP assay (TR-FRET); type: biochemical; conditions: ATP 2 mM final; 15 min preincubation with enzyme
# Procedure: MKNK1 Kinase High ATP Assay
# MKNK1-inhibitory activity at high ATP of compounds of the present invention after their preincubation with MKNK1 was quantified employing the TR-FRET-based MKNK1 high ATP assay as described in the following paragraphs.
# As substrate for the kinase reaction the biotinylated peptide biotin-Ahx-[…] (C-terminus in amide form) was used, which can be purchased e.g. from the company Biosyntan (Berlin-Buch, Germany).
# as §1, with “3.3 mM=>final” for “16.7 μM=>final”, “2 mM)” for “10 μM)”, “30” for “45”, “0.003” for “0.05”
# as §2
# T1 sequence (Q9BUB5 other isoform, or with tags, fused parts or gaps T344D): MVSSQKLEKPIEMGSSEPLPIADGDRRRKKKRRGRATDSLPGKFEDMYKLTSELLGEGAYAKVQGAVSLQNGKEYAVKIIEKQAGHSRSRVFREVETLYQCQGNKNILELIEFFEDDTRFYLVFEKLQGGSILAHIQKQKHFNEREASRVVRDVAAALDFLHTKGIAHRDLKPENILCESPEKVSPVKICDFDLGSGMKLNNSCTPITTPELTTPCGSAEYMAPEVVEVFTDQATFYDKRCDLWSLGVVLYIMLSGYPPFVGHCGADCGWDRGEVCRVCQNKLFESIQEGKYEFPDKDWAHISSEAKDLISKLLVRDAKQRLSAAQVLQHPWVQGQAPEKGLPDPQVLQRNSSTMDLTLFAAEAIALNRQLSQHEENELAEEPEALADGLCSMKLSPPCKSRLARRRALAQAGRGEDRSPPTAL
SMILES,IC50 [1] [nM],IC50 [2] [nM]
"OCC1CCCN(c2ccc3ncc(-c4cc5ccccc5o4)n3n2)C1 (stereo not drawn) [Example 5, {1-[3-(1-Benzofuran-2-yl)imidazo[1,2-b]pyridazin-6-yl]piperidin-3-yl}methanol]",37,13
"OC[C@H]1CCN(c2ccc3ncc(-c4cc5ccccc5o4)n3n2)C1 [Example 10, {(3S)-1-[3-(1-Benzofuran-2-yl)imidazo[1,2-b]pyridazin-6-yl]pyrrolidin-3-yl}methanol]",20,
"OC[C@@H]1CCN(c2ccc3ncc(-c4cc5ccccc5o4)n3n2)C1 [Example 7, {(3R)-1-[3-(1-Benzofuran-2-yl)imidazo[1,2-b]pyridazin-6-yl]pyrrolidin-3-yl}methanol]",14,4
"OC[C@H]1CCCN1c1ccc2ncc(-c3cc4ccccc4o3)n2n1 [Example 2, {(2R)-1-[3-(1-Benzofuran-2-yl)imidazo-[1,2-b]-pyridazin-6-yl]pyrrolidin-2-yl}-methanol]",42,22
"OC1CN(c2ccc3ncc(-c4cc5ccccc5o4)n3n2)C1 [Example 6, 1-[3-(1-Benzofuran-2-yl)imidazo[1,2-b]pyridazin-6-yl]azetidin-3-ol]",33,12
"OC[C@@H]1CCCN1c1ccc2ncc(-c3cc4ccccc4o3)n2n1 [Example 1, {(2S)-1-[3-(1-Benzofuran-2-yl)imidazo[1,2-b]pyridazin-6-yl]pyrrolidin-2-yl}methanol]",19,7

# The remaining lines, values ahead:
IC50 [1] [nM],IC50 [2] [nM],SMILES
15,,"O[C@@H]1CCN(c2ccc3ncc(-c4cc5ccccc5o4)n3n2)C1 [Example 9, (3R)-1-[3-(1-Benzofuran-2-yl)imidazo[1,2-b]pyridazin-6-yl]pyrrolidin-3-ol]"
44,15,"O[C@@H]1CCCN(c2ccc3ncc(-c4cc5ccccc5o4)n3n2)C1 [Example 4, (3R)-1-[3-(1-Benzofuran-2-yl)imidazo[1,2-b]pyridazin-6-yl]piperidin-3-ol]"
17,6,"OC1CCN(c2ccc3ncc(-c4cc5ccccc5o4)n3n2)C1 (stereo not drawn) [Example 3, 1-[3-(1-Benzofuran-2-yl)imidazo[1,2-b]pyridazin-6-yl]pyrrolidin-3-ol]"
19,15,"O[C@H]1CCN(c2ccc3ncc(-c4cc5ccccc5o4)n3n2)C1 [Example 8, (3S)-1-[3-(1-Benzofuran-2-yl)imidazo[1,2-b]pyridazin-6-yl]pyrrolidin-3-ol]"
